Test results published in ChEMBL document CHEMBL4680119, “Battle tactics against MMP-9; discovery of novel non-hydroxamate MMP-9 inhibitors endowed with PI3K/AKT signaling attenuation and caspase 3/7 activation via Ugi bis-amide synthesis” (Eur J Med Chem, 2020).
pIC50: −log10 of the molar value.

What was measured:
WI-38 = assay: Cytotoxicity against human WI-38 cells assessed as reduction in cell viability by MTT assay; format: cell-based; details: for pIC50: Homo sapiens, WI-38; for EC100: human, wi-38
[1] = Anticancer activity against […] cells assessed as reduction in cell viability by MTT assay; format: functional, cell-based; details: Mus musculus
HepG2 = assay: Anticancer activity against human HepG2 cells assessed as reduction in cell viability by MTT assay; format: functional, cell-based
MCF7 = assay: cells; details: Homo sapiens
Description: Anticancer activity against human MCF7 cells assessed as reduction in cell viability by MTT assay

in vitro = details: human, WI38 cells and HepG2 cells
Description: Selectivity index, ratio of IC50 for human WI38 cells to IC50 for human HepG2 cells

[2] = target: Matrix metalloproteinase-9 (Homo sapiens, UniProt P14780); assay: Inhibition of MMP-9 (unknown origin) by colorimetric assay
Sequence of Matrix metalloproteinase-9 (P14780 whole entry): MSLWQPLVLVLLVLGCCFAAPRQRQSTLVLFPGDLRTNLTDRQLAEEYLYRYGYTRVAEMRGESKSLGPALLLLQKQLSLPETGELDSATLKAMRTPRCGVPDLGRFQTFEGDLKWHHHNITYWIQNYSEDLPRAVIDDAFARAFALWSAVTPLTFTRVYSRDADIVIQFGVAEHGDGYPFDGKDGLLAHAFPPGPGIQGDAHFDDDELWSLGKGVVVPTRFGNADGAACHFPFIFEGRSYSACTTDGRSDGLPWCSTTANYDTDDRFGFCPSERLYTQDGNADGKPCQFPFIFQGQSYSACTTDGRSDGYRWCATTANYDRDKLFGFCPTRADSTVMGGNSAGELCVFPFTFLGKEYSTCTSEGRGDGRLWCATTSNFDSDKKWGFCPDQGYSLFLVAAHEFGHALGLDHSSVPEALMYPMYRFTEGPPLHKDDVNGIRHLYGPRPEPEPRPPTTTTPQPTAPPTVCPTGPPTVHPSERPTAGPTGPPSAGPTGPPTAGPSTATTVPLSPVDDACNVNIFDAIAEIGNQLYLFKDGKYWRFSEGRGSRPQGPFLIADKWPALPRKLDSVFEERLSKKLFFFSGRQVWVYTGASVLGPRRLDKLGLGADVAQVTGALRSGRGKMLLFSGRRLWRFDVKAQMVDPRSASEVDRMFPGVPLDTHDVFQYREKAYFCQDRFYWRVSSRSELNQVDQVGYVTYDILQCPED

[3] = target: 72 kDa type IV collagenase (Homo sapiens, UniProt P08253); assay: Inhibition of MMP-2 (unknown origin) by colorimetric assay
Sequence of 72 kDa type IV collagenase (P08253 whole entry): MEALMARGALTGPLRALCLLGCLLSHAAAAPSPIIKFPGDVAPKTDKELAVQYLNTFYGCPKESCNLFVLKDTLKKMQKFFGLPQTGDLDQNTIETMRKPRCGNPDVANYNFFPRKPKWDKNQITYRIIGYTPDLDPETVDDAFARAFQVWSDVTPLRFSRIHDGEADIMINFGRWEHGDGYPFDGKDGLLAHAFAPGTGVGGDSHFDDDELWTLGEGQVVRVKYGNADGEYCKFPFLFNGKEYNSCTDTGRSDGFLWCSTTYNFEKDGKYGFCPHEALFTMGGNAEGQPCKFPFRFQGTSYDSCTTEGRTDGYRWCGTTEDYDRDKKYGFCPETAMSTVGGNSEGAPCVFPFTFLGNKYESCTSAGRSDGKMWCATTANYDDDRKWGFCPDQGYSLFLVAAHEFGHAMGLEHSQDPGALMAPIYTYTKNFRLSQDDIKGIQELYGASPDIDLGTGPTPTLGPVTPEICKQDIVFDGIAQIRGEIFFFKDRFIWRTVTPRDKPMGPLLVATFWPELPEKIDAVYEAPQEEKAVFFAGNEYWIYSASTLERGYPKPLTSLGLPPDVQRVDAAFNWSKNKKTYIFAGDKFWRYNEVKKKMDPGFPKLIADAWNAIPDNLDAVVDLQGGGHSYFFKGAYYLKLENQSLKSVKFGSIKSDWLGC

Collagenase 3 = Collagenase 3 (Homo sapiens, UniProt P45452); assay: Inhibition of MMP-13 (unknown origin) by colorimetric assay

Row | SMILES | pIC50 (WI-38) | EC100 (WI-38) [nM] | pIC50 [1] | pIC50 (HepG2) | pIC50 (MCF7) | selectivity ratio (in vitro) | pIC50 [2] | pIC50 [3] | pIC50 (Collagenase 3)
1 | O=C(Nc1ccc([N+](=O)[O-])cc1)C(c1ccccc1)N(C(=O)/C=C/c1ccccc1)c1ccccc1 (configuration not stated) | 7.54 | 4.8 | 7.89 | 7.71 | 7.89 | 1.49 | – | – | –
2 | O=C(Nc1ccc([N+](=O)[O-])cc1)C(c1ccccc1[N+](=O)[O-])N(C(=O)c1ccccc1[N+](=O)[O-])c1ccccc1 (configuration not stated) | 6.44 | 198.9 | 6.68 | 6.36 | 6.73 | 0.828 | – | – | –
3 | CC(C)(C)OC(=O)NCC(=O)N(c1ccccc1)C(C(=O)Nc1ccc([N+](=O)[O-])cc1)c1ccccc1 (configuration not stated) | 7.37 | 18.2 | 7.50 | 7.44 | 7.74 | 1.2 | – | – | –
4 | Cc1ccc(N(C(=O)c2ccc(C(F)(F)F)cc2)C(C(=O)Nc2ccc([N+](=O)[O-])cc2)c2ccccc2)cc1 (configuration not stated) | 7.54 | 14.9 | 7.99 | 8.03 | 8.10 | 3.04 | – | – | –
5 | Cc1ccc(N(C(=O)c2ccccc2[N+](=O)[O-])C(C(=O)Nc2ccc([N+](=O)[O-])cc2)c2ccccc2)cc1 (configuration not stated) | 6.30 | 305.4 | 6.74 | 6.81 | 6.53 | 3.25 | – | – | –
6 | O=C(Nc1ccc([N+](=O)[O-])cc1)C(c1ccc([N+](=O)[O-])cc1)N(C(=O)c1ccc([N+](=O)[O-])cc1)c1ccccc1 (configuration not stated) | 6.84 | 82.4 | 6.72 | 6.73 | 6.69 | 0.768 | – | – | –
7 | CC(=O)N(c1ccccc1)C(C(=O)Nc1ccc([N+](=O)[O-])cc1)c1ccccc1 (configuration not stated) | 6.29 | 301 | 6.54 | 6.75 | 6.51 | 2.83 | – | – | –
8 | O=C(Nc1ccc([N+](=O)[O-])cc1)C(c1ccccc1)N(C(=O)c1ccc(C(F)(F)F)cc1)c1ccccc1 (configuration not stated) | 7.34 | 26.9 | 7.94 | 8.10 | 7.92 | 5.75 | – | – | –
9 | O=C(Nc1ccc([N+](=O)[O-])cc1)C(c1ccccc1)N(C(=O)Cc1ccccc1)c1ccccc1 (configuration not stated) | 6.09 | 290.7 | 7.75 | 7.75 | 7.58 | 46 | – | – | –
10 | O=C(Nc1ccc([N+](=O)[O-])cc1)C(c1ccccc1)N(C(=O)CCC(=O)N(c1ccccc1)C(C(=O)Nc1ccc([N+](=O)[O-])cc1)c1ccccc1)c1ccccc1 (configuration not stated) | 6.71 | 141.4 | 6.86 | 6.90 | 6.78 | 1.56 | – | – | –
11 | O=C(Nc1ccc([N+](=O)[O-])cc1)C(c1ccccc1)N(C(=O)c1ccc([N+](=O)[O-])cc1)c1ccccc1 (configuration not stated) | 5.92 | 469.8 | 7.92 | 7.67 | 7.57 | 56.7 | – | – | –
12 | O=C(Nc1ccc([N+](=O)[O-])cc1)C(c1ccccc1)N(C(=O)c1ccccc1[N+](=O)[O-])c1ccc(I)cc1 (configuration not stated) | 6.50 | 188.3 | 6.74 | 6.75 | 6.74 | 1.77 | – | – | –
13 | O=C(Nc1ccc([N+](=O)[O-])cc1)C(c1ccccc1)N(C(=O)c1ccccc1[N+](=O)[O-])c1cccc(Br)c1 (configuration not stated) | 6.70 | 89.7 | 6.81 | 6.86 | 6.77 | 1.44 | – | – | –
14 | O=C(Nc1ccc([N+](=O)[O-])cc1)C(c1ccc(Br)cc1)N(C(=O)c1ccccc1[N+](=O)[O-])c1ccccc1 (configuration not stated) | 6.63 | 12.7 | 7.09 | 7.12 | 7.07 | 3.06 | – | – | –
15 | O=C(Nc1ccc([N+](=O)[O-])cc1)C(c1ccccc1)N(C(=O)C(Cl)(Cl)Cl)c1ccccc1 (configuration not stated) | 5.34 | 1912 | 7.64 | 7.51 | 7.96 | 148 | – | – | –
16 | NCC(=O)N(c1ccccc1)C(C(=O)Nc1ccc([N+](=O)[O-])cc1)c1ccccc1 (configuration not stated) | 6.66 | 84.9 | 6.77 | 6.82 | 6.78 | 1.44 | – | – | –
17 | O=C(Nc1ccc([N+](=O)[O-])cc1)C(c1ccccc1)N(C(=O)c1ccccc1[N+](=O)[O-])c1ccccc1 (configuration not stated) | 6.37 | 130.2 | 7.53 | 7.38 | 7.48 | 10.1 | – | – | –
18 | Cc1ccc(N(C(=O)c2ccc([N+](=O)[O-])cc2)C(C(=O)Nc2ccc([N+](=O)[O-])cc2)c2ccccc2)cc1 (configuration not stated) | 6.74 | 113.6 | 7.03 | 7.13 | 6.98 | 2.44 | – | – | –
19 | Cc1ccc(N(C(=O)c2ccc(Cl)cc2)C(C(=O)Nc2ccc([N+](=O)[O-])cc2)c2ccccc2)cc1 (configuration not stated) | 7.37 | 18.25 | 7.27 | 7.29 | 7.19 | 0.842 | – | – | –
20 | O=C(Nc1ccc([N+](=O)[O-])cc1)C(c1ccccc1[N+](=O)[O-])N(C(=O)C(F)(F)F)c1ccccc1 (configuration not stated) | 6.46 | 112.4 | 7.28 | 7.16 | 7.83 | 5.06 | – | – | –
21 | O=C(Nc1ccc([N+](=O)[O-])cc1)C(c1ccc([N+](=O)[O-])cc1)N(C(=O)c1ccccc1[N+](=O)[O-])c1ccccc1 (configuration not stated) | 6.68 | 158.3 | 6.79 | 6.80 | 6.76 | 1.32 | – | – | –
22 | COc1ccc(S(=O)(=O)N(CC(=O)NO)CC(C)C)cc1 | – | – | – | – | – | – | 7.11 | 7.16 | 6.88
23 | Cc1ccc(N(C(=O)c2ccc(Br)cc2)C(C(=O)Nc2ccc([N+](=O)[O-])cc2)c2ccccc2)cc1 (configuration not stated) | 6.58 | 36.1 | 6.92 | 6.95 | 6.91 | 2.34 | – | – | –
24 | O=C(Nc1ccc([N+](=O)[O-])cc1)C(c1ccccc1)N(C(=O)C(F)(F)F)c1ccccc1 (configuration not stated) | 5.84 | 540.3 | 7.62 | 7.68 | 7.55 | 70.3 | – | – | –
25 | O=CN(c1ccccc1)C(C(=O)Nc1ccc([N+](=O)[O-])cc1)c1ccccc1 (configuration not stated) | 6.27 | 161.5 | 7.03 | 6.97 | 7.25 | 5.09 | – | – | –
